Laboratory results from ChEMBL document CHEMBL5696442, “Discovery of type II inhibitors of TGFβ-activated kinase 1 (TAK1) and mitogen-activated protein kinase kinase kinase kinase 2 (MAP4K2)” (J Med Chem, 2015).
Calls of active or inactive are those of the source. The rule behind the calls is not given here.

Experiments:
[1] = molecular target: T1, Serine/threonine-protein kinase TAO3 (Homo sapiens) (UniProt Q9H2K8); experiment: Inhibition of TAO3 Lys2 labeling site in human Huh-7 cells at 1 uM by KiNativ Profiling analysis relative to control; assay type: cell-based
T1 sequence (whole entry): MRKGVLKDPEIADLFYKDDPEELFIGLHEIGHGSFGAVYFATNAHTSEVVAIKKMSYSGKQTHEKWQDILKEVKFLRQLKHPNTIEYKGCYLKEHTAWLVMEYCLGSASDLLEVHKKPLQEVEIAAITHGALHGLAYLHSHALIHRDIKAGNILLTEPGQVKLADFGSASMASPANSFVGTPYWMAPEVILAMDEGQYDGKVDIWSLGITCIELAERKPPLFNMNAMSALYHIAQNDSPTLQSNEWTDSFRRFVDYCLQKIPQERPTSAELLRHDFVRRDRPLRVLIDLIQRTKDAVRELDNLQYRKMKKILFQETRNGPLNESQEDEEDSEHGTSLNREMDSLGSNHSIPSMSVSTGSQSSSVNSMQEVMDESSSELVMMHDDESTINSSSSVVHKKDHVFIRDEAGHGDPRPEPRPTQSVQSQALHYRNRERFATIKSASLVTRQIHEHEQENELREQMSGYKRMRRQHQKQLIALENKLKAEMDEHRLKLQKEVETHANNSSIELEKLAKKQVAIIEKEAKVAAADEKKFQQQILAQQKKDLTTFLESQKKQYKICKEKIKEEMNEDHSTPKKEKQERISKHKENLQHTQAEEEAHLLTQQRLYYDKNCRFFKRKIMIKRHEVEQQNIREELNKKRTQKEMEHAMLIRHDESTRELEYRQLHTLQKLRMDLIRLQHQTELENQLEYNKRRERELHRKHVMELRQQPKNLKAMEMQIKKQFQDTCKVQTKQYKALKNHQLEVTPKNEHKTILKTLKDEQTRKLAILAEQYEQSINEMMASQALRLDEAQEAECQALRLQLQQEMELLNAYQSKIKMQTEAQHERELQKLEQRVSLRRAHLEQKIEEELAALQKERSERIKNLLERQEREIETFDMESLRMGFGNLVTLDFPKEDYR

[2] = molecular target: Cyclin-dependent kinase 7 (Homo sapiens) (UniProt P50613); experiment: Inhibition of CDK7 Lys2 labeling site in human Huh-7 cells at 1 uM by KiNativ Profiling analysis relative to control; assay type: cell-based
[3] = molecular target: Dual specificity mitogen-activated protein kinase kinase 1 (Homo sapiens) (UniProt Q02750); experiment: Inhibition of MAP2K1 Lys2 labeling site harbouring IMHRDVKPSNILVNSR in human Huh-7 cells at 1 uM by KiNativ Profiling analysis relative to control; assay type: cell-based
Chain of Dual specificity mitogen-activated protein kinase kinase 1 (Homo sapiens) (Q02750 whole entry): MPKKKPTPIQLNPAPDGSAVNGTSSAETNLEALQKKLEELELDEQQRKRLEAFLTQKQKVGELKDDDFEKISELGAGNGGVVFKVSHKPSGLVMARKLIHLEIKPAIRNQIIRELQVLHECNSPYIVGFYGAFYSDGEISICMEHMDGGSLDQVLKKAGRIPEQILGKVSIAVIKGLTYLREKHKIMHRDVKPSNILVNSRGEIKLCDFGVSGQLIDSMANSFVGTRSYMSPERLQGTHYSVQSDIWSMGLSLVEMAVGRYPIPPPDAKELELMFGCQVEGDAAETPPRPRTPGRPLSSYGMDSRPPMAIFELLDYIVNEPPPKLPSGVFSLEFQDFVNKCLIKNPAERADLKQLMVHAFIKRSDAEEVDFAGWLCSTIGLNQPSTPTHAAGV

[4] = molecular target: Phosphatidylinositol 4-kinase beta (Homo sapiens) (UniProt Q9UBF8); experiment: Inhibition of PI4KB ATP labeling site harbouring VPHTQAVVLNSKDKAPYLIYVEVLECENFDTTSVPAR in human A-375 cells at 0.5 uM by KiNativ Profiling analysis relative to control; assay type: cell-based
[5] = molecular target: Tyrosine-protein kinase TXK (Homo sapiens) (UniProt P42681); experiment: Inhibition of TXK (unknown origin) at 1 uM by Ambit Kinomescan binding assay relative to control
Chain of Tyrosine-protein kinase TXK (Homo sapiens) (P42681 whole entry): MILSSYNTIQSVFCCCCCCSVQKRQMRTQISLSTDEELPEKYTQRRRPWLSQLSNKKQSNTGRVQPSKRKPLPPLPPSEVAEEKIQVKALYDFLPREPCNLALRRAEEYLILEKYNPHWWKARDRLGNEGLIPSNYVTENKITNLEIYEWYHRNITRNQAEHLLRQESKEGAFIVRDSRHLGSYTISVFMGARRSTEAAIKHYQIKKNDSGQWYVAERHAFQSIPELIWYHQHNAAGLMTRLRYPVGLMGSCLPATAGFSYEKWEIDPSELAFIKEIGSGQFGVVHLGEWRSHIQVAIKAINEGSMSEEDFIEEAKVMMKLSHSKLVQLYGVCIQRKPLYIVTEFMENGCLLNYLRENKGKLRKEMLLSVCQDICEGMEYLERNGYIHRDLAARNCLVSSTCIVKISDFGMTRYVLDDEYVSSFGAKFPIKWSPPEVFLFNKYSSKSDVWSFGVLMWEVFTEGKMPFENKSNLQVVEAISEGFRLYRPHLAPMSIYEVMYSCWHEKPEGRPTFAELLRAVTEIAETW

[6] = molecular target: Tyrosine-protein kinase Fyn (Homo sapiens) (UniProt P06241); experiment: Inhibition of FYN ACT labeling site in human A-375 cells at 0.05 uM by KiNativ Profiling analysis relative to control; assay type: cell-based
Chain of Tyrosine-protein kinase Fyn (Homo sapiens) (P06241 2-537 limits assumed): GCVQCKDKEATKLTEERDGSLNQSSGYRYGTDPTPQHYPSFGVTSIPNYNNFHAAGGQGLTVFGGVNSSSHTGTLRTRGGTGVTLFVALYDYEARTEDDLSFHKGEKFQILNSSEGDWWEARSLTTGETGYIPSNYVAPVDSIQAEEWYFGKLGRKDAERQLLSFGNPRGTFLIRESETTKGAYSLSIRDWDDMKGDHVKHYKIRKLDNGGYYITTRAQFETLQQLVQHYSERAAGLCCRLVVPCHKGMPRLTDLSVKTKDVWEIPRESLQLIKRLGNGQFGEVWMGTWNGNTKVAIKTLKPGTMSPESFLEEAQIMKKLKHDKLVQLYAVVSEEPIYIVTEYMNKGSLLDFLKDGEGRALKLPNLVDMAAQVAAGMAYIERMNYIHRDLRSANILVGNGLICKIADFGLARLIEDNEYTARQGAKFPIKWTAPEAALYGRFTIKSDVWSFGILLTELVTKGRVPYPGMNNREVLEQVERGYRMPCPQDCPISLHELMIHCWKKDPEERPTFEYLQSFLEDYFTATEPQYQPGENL

[7] = test system: Epidermal growth factor receptor (Homo sapiens), P00533 [UNDEFINED MUTATION]; experiment: Inhibition of EGFR S752-I759del mutant (unknown origin) at 1 uM by Ambit Kinomescan binding assay relative to control
Chain of Epidermal growth factor receptor (Homo sapiens), P00533 [UNDEFINED MUTATION] (P00533 whole entry, looked up, stated change not applied): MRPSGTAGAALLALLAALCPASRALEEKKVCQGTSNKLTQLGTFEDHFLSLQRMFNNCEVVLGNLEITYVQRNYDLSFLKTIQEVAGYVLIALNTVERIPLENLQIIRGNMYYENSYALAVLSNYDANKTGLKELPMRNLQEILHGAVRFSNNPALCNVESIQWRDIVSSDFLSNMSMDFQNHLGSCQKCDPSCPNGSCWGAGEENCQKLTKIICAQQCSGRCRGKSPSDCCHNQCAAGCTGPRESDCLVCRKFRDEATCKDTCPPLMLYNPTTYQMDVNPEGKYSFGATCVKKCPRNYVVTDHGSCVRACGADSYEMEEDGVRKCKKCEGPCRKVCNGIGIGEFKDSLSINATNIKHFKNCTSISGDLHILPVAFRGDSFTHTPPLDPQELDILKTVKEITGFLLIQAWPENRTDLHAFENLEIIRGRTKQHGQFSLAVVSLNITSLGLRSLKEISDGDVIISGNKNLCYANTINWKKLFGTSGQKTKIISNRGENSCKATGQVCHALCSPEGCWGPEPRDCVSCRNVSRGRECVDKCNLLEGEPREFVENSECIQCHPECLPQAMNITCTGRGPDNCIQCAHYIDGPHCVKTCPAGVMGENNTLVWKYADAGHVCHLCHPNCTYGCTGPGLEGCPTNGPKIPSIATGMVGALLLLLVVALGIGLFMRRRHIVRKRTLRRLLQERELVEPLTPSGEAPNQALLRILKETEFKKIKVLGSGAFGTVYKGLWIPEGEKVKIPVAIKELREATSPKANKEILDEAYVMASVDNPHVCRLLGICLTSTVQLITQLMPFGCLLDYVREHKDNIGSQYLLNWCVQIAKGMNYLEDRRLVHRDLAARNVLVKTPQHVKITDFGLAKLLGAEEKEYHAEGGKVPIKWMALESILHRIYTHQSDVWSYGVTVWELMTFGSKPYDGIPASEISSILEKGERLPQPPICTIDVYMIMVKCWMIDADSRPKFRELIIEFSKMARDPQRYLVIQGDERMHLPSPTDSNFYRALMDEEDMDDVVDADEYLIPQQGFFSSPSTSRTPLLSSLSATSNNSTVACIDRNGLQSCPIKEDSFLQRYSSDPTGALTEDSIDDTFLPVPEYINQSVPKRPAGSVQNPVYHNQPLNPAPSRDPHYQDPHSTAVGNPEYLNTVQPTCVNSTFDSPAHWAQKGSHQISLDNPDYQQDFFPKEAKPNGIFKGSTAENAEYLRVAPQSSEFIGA

[8] = molecular target: Tyrosine-protein kinase BTK (Homo sapiens) (UniProt Q06187); experiment: Inhibition of BTK (unknown origin) at 1 uM by Ambit Kinomescan binding assay relative to control
[9] = molecular target: Non-receptor tyrosine-protein kinase TNK1 (Homo sapiens) (UniProt Q13470); experiment: Inhibition of TNK1 (unknown origin) at 1 uM by Ambit Kinomescan binding assay relative to control
[10] = molecular target: Ribosomal protein S6 kinase alpha-3 (Homo sapiens) (UniProt P51812); experiment: Inhibition of RSK2 Domain 2 K1 labeling site in human Huh-7 cells at 10 uM by KiNativ Profiling analysis relative to control; assay type: cell-based
Chain of Ribosomal protein S6 kinase alpha-3 (Homo sapiens) (P51812 whole entry, the tested form may be a part): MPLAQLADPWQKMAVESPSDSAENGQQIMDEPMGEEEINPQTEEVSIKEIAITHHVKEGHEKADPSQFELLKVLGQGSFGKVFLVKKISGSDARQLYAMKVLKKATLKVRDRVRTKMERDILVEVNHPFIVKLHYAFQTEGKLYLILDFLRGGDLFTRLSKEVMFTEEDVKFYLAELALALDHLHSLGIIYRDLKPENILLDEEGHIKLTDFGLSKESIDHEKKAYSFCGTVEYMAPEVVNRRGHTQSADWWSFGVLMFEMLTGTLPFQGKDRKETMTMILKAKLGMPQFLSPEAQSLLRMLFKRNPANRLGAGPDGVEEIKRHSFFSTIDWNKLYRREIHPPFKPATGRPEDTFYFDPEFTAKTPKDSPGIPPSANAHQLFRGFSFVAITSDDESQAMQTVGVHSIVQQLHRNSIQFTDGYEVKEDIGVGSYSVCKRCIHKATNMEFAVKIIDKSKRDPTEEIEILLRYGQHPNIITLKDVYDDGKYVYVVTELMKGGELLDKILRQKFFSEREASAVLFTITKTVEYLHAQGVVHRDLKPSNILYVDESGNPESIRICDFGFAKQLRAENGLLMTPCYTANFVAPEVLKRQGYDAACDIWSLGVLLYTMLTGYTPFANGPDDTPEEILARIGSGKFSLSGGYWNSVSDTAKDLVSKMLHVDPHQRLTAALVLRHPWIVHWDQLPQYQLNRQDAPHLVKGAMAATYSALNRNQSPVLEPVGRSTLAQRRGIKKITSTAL

[11] = test system: eIF-2-alpha kinase GCN2 (Homo sapiens), Q9P2K8 [S808G]; experiment: Inhibition of GCN2 kinase domain S808G mutant (unknown origin) at 10 uM by Ambit Kinomescan binding assay
Chain of eIF-2-alpha kinase GCN2 (Homo sapiens), Q9P2K8 [S808G] (Q9P2K8 whole entry S808G, the tested form may be a part): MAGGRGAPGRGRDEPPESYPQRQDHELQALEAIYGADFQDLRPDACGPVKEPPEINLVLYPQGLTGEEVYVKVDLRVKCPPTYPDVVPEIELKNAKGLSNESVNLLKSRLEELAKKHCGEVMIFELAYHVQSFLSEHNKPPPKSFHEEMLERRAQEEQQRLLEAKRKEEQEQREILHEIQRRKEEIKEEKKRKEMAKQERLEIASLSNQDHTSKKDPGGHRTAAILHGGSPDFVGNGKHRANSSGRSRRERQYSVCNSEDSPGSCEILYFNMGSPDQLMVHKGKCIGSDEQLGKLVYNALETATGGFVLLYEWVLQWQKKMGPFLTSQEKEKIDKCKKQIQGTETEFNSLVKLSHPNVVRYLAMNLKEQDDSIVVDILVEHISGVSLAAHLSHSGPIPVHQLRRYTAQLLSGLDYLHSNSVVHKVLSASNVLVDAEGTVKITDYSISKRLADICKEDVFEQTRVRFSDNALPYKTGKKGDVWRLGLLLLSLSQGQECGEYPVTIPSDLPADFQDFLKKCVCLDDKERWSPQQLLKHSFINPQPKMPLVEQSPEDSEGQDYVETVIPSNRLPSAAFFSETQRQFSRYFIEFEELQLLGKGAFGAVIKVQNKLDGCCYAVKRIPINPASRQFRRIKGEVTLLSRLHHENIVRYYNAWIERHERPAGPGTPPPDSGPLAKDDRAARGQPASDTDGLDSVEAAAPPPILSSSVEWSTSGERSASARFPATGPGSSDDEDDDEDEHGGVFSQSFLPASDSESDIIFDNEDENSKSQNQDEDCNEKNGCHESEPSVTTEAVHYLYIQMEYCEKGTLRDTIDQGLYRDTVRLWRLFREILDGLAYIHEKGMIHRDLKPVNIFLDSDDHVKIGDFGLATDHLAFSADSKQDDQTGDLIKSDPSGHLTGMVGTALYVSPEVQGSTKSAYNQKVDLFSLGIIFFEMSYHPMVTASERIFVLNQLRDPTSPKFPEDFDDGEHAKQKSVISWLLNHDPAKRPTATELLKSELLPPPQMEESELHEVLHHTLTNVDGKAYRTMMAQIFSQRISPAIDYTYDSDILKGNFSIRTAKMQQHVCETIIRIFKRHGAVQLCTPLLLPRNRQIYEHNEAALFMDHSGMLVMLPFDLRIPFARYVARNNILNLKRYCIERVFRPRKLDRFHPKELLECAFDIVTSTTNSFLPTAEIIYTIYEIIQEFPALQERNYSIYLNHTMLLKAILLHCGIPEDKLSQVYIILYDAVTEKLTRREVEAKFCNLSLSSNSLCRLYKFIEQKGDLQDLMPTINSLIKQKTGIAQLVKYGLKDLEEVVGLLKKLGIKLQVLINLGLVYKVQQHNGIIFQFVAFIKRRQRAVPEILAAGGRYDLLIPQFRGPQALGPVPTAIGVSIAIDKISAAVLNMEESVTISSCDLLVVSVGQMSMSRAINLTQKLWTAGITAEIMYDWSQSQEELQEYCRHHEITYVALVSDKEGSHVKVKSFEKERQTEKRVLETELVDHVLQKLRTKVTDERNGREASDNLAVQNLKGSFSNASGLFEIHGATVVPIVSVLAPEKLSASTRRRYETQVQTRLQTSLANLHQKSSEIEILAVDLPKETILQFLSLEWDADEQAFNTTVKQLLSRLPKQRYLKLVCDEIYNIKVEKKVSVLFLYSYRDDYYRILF

[12] = molecular target: Insulin receptor-related protein (Homo sapiens) (UniProt P14616); experiment: Inhibition of INSRR (unknown origin) at 10 uM by Ambit Kinomescan binding assay relative to control
[13] = molecular target: Tyrosine-protein kinase Fyn (Homo sapiens) (UniProt P06241); experiment: Inhibition of FYN (unknown origin) at 10 uM by Ambit Kinomescan binding assay relative to control; values are per cent of control
[14] = molecular target: Peripheral plasma membrane protein CASK (Homo sapiens) (UniProt O14936); experiment: Inhibition of CASK Lys1 labeling site in human A-375 cells at 0.05 uM by KiNativ Profiling analysis relative to control

## CNc1cc(Oc2cc(C(=O)Nc3cc(N4CCN(C)CC4)cc(C(F)(F)F)c3)ccc2C)ncn1
[1]
  inhibition: 0.4%
[2]
  inhibition: 2.6%
[3]
  inhibition: 16.6%

## CCN1CCN(Cc2ccc(NC(=O)c3ccc(C)c(/C=C/c4cnc5[nH]ccc5c4OC)c3)cc2C(F)(F)F)CC1
[4]
  inhibition: 18.3%
[5]
  inhibition: 1.4%
[6]
  inhibition: 38.9%
[7]
  inhibition: 1.4%
[8]
  inhibition: 10%
[9]
  inhibition: 6.6%

## CCN1CCN(Cc2ccc(NC(=O)c3ccc(C)c(Oc4ccnc5[nH]ccc45)c3)cc2C(F)(F)F)CC1
[10]
  inhibition: inactive
[11]
  inhibition: inactive
[12]
  inhibition: 23%
[13]
  percent of control: 1.6%
[14]
  inhibition: 10.9%
